Data on 26 compounds can be found in US20070135490A1, “Phenetanolamine derivatives” (priority 2003, published 2007).

In the first test the target is T1, human beta-2 receptor (Homo sapiens, UniProt P07550).
T1 construct: expressed in transfected cells; host or cells: Chinese hamster ovary cells (whole cells or membranes derived from them)
The test is described as follows: Chinese hamster ovary cells co-expressing the human receptor with a reporter gene, cAMP measurement in whole cells or membranes (Method 2). As to conditions: CHO cells or membranes. It counts as cell-based. On the procedure: Potency of compounds of the invention at the human beta 2, 1 and 3 receptors was also determined using Chinese hamster ovary cells co-expressing the human receptor with a reporter gene. Studies were performed using either whole cells or membranes derived from those cells.
The three beta-receptors are coupled via the Gs G-protein to cause a simulation of adenylate cyclase resulting in increased levels of cAMP in the cell. For direct cAMP measurements either membranes or cells have been used with either the HitHunter enzyme fragment complementation kit (DiscoveRx) or the FP^2 fluorescence polarisation kit (Perkin Elmer) to quantify the levels of cAMP present. These assays provide a measure of agonist potency and intrinsic activity of the compounds at the various receptors. […]
In this assay the potency of compounds at the human beta-2 receptor is expressed as a pEC50 value. Compounds of examples 12-26, 28-50 and 52-64 had pEC50 values greather than 6. […] No result is available for the compound of example 51.
A general note: A reporter such as luciferase makes a cellular process visible.
Regarding “Formic acid compound with 4-((1R)-1-hydroxy-2-{[2-(3-{[3-(2-hydroxyphenyl)propoxy]methyl}phenyl)ethyl]amino}ethyl)-2-(hydroxymethyl)phenol (1:1) [Example 27]”, the “pEC50 at the human beta-2 receptor” value is recorded as “less than 6”.

Still in this test, the particulars now being: CHO cells or membranes, read-out: pEC50 at the human beta-2 receptor (converted).
In the case of `OCc1cc([C@@H](O)CNCCc2cccc(COCCOCc3cccc(O)c3)c2)ccc1O` [Example 32, Formic acid compound with 4-[(1R)-1-hydroxy-2-({2-[3-({2-[(3-hydroxybenzyl)oxy]ethoxy}methyl)phenyl]ethyl}amino)ethyl]-2-(hydroxymethyl)phenol (1:1)], the EC50 is less than 1000 nM.
For `C[C@@H](OCc1cccc(CCNC[C@H](O)c2ccc(O)c(CO)c2)c1)c1ccccc1` [Example 44, Formic acid compound with 2-(hydroxymethyl)-4-[(1R)-1-hydroxy-2-({2-[3-({[(1R)-1-phenylethyl]oxy}methyl)phenyl]ethyl}amino)ethyl]phenol (1:1)], the EC50 was less than 1000 nM.
Take `N#Cc1ccc(CCCCOCc2cccc(CCNC[C@H](O)c3ccc(O)c(CO)c3)c2)cc1` [Example 21, Formic acid compound with 4-[4-({3-[2-({(2R)-2-hydroxy-2-[4-hydroxy-3-(hydroxymethyl)phenyl]ethyl}amino)ethyl]benzyl}oxy)butyl]benzonitrile (1:1)]: the EC50 is less than 1000 nM.
Same read-out and setting: the same measure for `OCc1cc([C@@H](O)CNCCc2cccc(COCCCCc3cccc(O)c3)c2)ccc1O` [Example 19, Formic acid compound with 4-((1R)-1-hydroxy-2-{[2-(3-{[4-(3-hydroxyphenyl)butoxy]methyl}phenyl)ethyl]amino}ethyl)-2-(hydroxymethyl)phenol (1:1)]: less than 1000 nM; for `OCc1cc([C@@H](O)CNCCc2cccc(COCCc3cccc(F)c3)c2)ccc1O` [Example 39, Formic acid compound with 4-((1R)-2-{[2-(3-{[2-(3-fluorophenyl)ethoxy]methyl}phenyl)ethyl]amino}-1-hydroxyethyl)-2-(hydroxymethyl)phenol (1:1)]: less than 1000 nM; for `OCc1cc([C@@H](O)CNCCc2cccc(COCc3cccc(F)c3)c2)ccc1O` [Example 49, Formic acid compound with 4-((1R)-2-{[2-(3-{[(3-fluorobenzyl)oxy]methyl}phenyl)ethyl]amino}-1-hydroxyethyl)-2-(hydroxymethyl)phenol (1:1)]: less than 1000 nM.
As for `NC(=O)Nc1cccc(CCCCOCc2cccc(CCNC[C@H](O)c3ccc(O)c(CO)c3)c2)c1` [Example 58, Formic acid compound with N-{3-[4-({3-[2-({(2R)-2-hydroxy-2-[4-hydroxy-3-(hydroxymethyl)phenyl]ethyl}amino)ethyl]benzyl}oxy)butyl]phenyl}urea (1:1)], the EC50 is less than 1000 nM.
The same measure, in the same setting: the same measure for `N#Cc1ccc(COCc2cccc(CCNC[C@H](O)c3ccc(O)c(CO)c3)c2)cc1` [Example 43, Formic acid compound with 4-[({3-[2-({(2R)-2-hydroxy-2-[4-hydroxy-3-(hydroxymethyl)phenyl]ethyl}amino)ethyl]benzyl}oxy)methyl]benzonitrile (1:1)]: less than 1000 nM; for `CS(=O)(=O)c1ccc(CCCOCc2cccc(CCNC[C@H](O)c3ccc(O)c(CO)c3)c2)cc1` [Example 23, Formic acid compound with 2-(hydroxymethyl)-4-[(1R)-1-hydroxy-2-({2-[3-({3-[4-(methylsulfonyl)phenyl]propoxy}methyl)phenyl]ethyl}amino)ethyl]phenol (1:1)]: less than 1000 nM; for `O=S(=O)(c1cccc(COCc2cccc(CCNC[C@H](O)c3ccc(O)c(CO)c3)c2)c1)C1CCCC1` [Example 35, Formic acid compound with 4-[(1R)-2-({2-[3-({[3-(cyclopentylsulfonyl)benzyl]oxy}methyl)phenyl]ethyl}amino)-1-hydroxyethyl]-2-(hydroxymethyl)phenol (1:1)]: less than 1000 nM.
Consider `O=S(=O)(c1ccc(CCCCOCc2cccc(CCNC[C@H](O)c3ccc(O)c(CO)c3)c2)cc1)C1CCCC1` [Example 29, Formic acid compound with 4-[(1R)-2-({2-[3-({4-[4-(cyclopentylsulfonyl)phenyl]butoxy}methyl)phenyl]ethyl}amino)-1-hydroxyethyl]-2-(hydroxymethyl)phenol (1:1)], for which the EC50 is less than 1000 nM.
Still for that read-out and setting: the same measure for `O=S(=O)(c1ccc(CCCOCc2cccc(CCNC[C@H](O)c3ccc(O)c(CO)c3)c2)cc1)C1CCCC1` [Example 30, Formic acid compound with 4-[(1R)-2-({2-[3-({3-[4-(cyclopentylsulfonyl)phenyl]propoxy}methyl)phenyl]ethyl}amino)-1-hydroxyethyl]-2-(hydroxymethyl)phenol (1:1)]: less than 1000 nM; for `NS(=O)(=O)c1cccc(CCOCc2cccc(CCNC[C@H](O)c3ccc(O)c(CO)c3)c2)c1` [Example 55, Formic acid compound with 3-[2-({3-[2-({(2R)-2-hydroxy-2-[4-hydroxy-3-(hydroxymethyl)phenyl]ethyl}amino)ethyl]benzyl}oxy)ethyl]benzenesulfonamide (1:1)]: less than 1000 nM.
As for `NS(=O)(=O)c1cccc(CCCCOCc2cccc(CCNC[C@H](O)c3ccc(O)c(CO)c3)c2)c1` [Example 12, Formic acid compound with 3-[4-({3-[2-({(2R)-2-Hydroxy-2-[4-hydroxy-3-(hydroxymethyl)phenyl]ethyl}amino)ethyl]benzyl}oxy)butyl]benzenesulfonamide (1:1)], the EC50 is less than 1000 nM.
For `OCc1cc([C@@H](O)CNCCc2cccc(COCc3ccc(O)cc3)c2)ccc1O` [Example 26, Formic acid compound with 4-((1R)-1-hydroxy-2-{[2-(3-{[(4-hydroxybenzyl)oxy]methyl}phenyl)ethyl]amino}ethyl)-2-(hydroxymethyl)phenol (1:1)], the EC50 is less than 1000 nM.
On the same count and under the same terms, the same measure for `O=S(=O)(c1cccc(CCCOCc2cccc(CCNC[C@H](O)c3ccc(O)c(CO)c3)c2)c1)C1CCCC1` [Example 31, Formic acid compound with 4-[(1R)-2-({2-[3-({3-[3-(cyclopentylsulfonyl)phenyl]propoxy}methyl)phenyl]ethyl}amino)-1-hydroxyethyl]-2-(hydroxymethyl)phenol (1:1)]: less than 1000 nM; for `OCc1cc([C@@H](O)CNCCc2cccc(COCCOCc3cccc(F)c3)c2)ccc1O` [Example 15, Formic acid compound with 4-[(1R)-2-({2-[3-({2-[(3-fluorobenzyl)oxy]ethoxy}methyl)phenyl]ethyl}amino)-1-hydroxyethyl]-2-(hydroxymethyl)phenol (1:1)]: less than 1000 nM.
As to `NC(=O)c1ccc(COCc2cccc(CCNC[C@H](O)c3ccc(O)c(CO)c3)c2)cc1` [Example 54, Formic acid compound with 4-[({3-[2-({(2R)-2-hydroxy-2-[4-hydroxy-3-(hydroxymethyl)phenyl]ethyl}amino)ethyl]benzyl}oxy)methyl]benzamide (1:1)], the EC50 is less than 1000 nM.
As for `O=S(=O)(c1cccc(CCCCOCc2cccc(CCNC[C@H](O)c3ccc(O)c(CO)c3)c2)c1)C1CCCC1` [Example 61, Formic acid compound with 4-[(1R)-2-({2-[3-({4-[3-(cyclopentylsulfonyl)phenyl]butoxy}methyl)phenyl]ethyl}amino)-1-hydroxyethyl]-2-(hydroxymethyl)phenol (1:1)], the EC50 is less than 1000 nM.
In the case of `OCc1cc([C@@H](O)CNCCc2cccc(COCCCCc3c(Cl)cccc3Cl)c2)ccc1O` [Example 57, Formic acid compound with 4-((1R)-2-{[2-(3-{[4-(2,6-dichlorophenyl)butoxy]methyl}phenyl)ethyl]amino}-1-hydroxyethyl)-2-(hydroxymethyl)phenol (1:1)], the EC50 was less than 1000 nM.
Regarding `OCc1cc([C@@H](O)CNCCc2cccc(COCc3ccc(F)cc3)c2)ccc1O` [Example 50, Formic acid compound with 4-((1R)-2-{[2-(3-{[(4-fluorobenzyl)oxy]methyl}phenyl)ethyl]amino}-1-hydroxyethyl)-2-(hydroxymethyl)phenol (1:1)], the EC50 is less than 1000 nM.
With `Cc1cc(C)cc(COCc2cccc(CCNC[C@H](O)c3ccc(O)c(CO)c3)c2)c1` [Example 46, Formic acid compound with 4-((1R)-2-{[2-(3-{[(3,5-dimethylbenzyl)oxy]methyl}phenyl)ethyl]amino}-1-hydroxyethyl)-2-(hydroxymethyl)phenol (1:1)], the EC50 is less than 1000 nM.
`CC(OCCOCc1cccc(CCNC[C@H](O)c2ccc(O)c(CO)c2)c1)c1ccccc1` (stereo partly drawn) [Example 59, Formic acid compound with 2-(hydroxymethyl)-4-((1R)-1-hydroxy-2-{[2-(3-{[2-(1-phenylethoxy)ethoxy]methyl}phenyl)ethyl]amino}ethyl)phenol (1:1)]: the EC50 is less than 1000 nM.
Regarding `OCc1cc([C@@H](O)CNCCc2cccc(COCCc3ccc(F)cc3)c2)ccc1O` [Example 40, Formic acid compound with 4-((1R)-2-{[2-(3-{[2-(4-fluorophenyl)ethoxy]methyl}phenyl)ethyl]amino}-1-hydroxyethyl)-2-(hydroxymethyl)phenol (1:1)], the EC50 was less than 1000 nM.
`OCc1cc([C@@H](O)CNCCc2cccc(COCCOCc3c(Cl)cccc3Cl)c2)ccc1O` [Example 14, Formic acid compound with 4-[(1R)-2-({2-[3-({2-[(2,6-dichlorobenzyl)oxy]ethoxy}methyl)phenyl]ethyl}amino)-1-hydroxyethyl]-2-(hydroxymethyl)phenol (1:1)]: the EC50 was less than 1000 nM.
